System: HIV-1 (strain IIIB)
Assay: MT4 Cell Assay (antiviral HIV activity, propidium iodide or MTS readout)
Format: cell-based
Conditions: Human immunodeficiency virus 1, IIIB, expected range for the control and standard, tested in every assay, MT4 cells
Description: Antiviral HIV activity and compound-induced cytotoxicity were measured in parallel by means of a propidium iodide based procedure in the human T-cell lymphotropic virus transformed cell line MT4. Aliquots of the test compounds were serially diluted in medium (RPMI 1640, 10% fetal calf serum (FCS), and gentamycin) in 96-well plates (Costar 3598) using a Cetus Pro/Pette. Exponentially growing MT4 cells were harvested and centrifuged at 1000 rpm for 10 min in a Jouan centrifuge (model CR 4 12). Cell pellets were resuspended in fresh medium (RPMI 1640, 20% FCS, 20% IL-2, and gentamycin) to a density of 5×10^5 cells/ml. Cell aliquots were infected by the addition of HIV-1 (strain IIIB) diluted to give a viral multiplicity of infection of 100× TCID50. […]
A. For propidium iodide readout, 27 μl of 5% Nonidet40 was added to each well of the incubation plate. […] The plates were analyzed in an automated assay instrument (Screen Machine, Idexx Laboratories). […]
B. For MTS readout, 20 μl CellTiter 96 AQ One Solution reagent (Promega #G3582) was added to each well. At 75 minutes following the addition of MTS reagent, absobance was read at 492 nm using a Tecan Sunrise 96-well plate reader. […]
For each assay plate, the results (relative fluorescence units, rfU, or OD values) of wells containing uninfected cells or infected cells with no compound were averaged, respectively. […]

Work on `Cc1cn([C@H]2C[C@H](N=[N+]=[N-])[C@@H](CO)O2)c(=O)[nH]c1=O` [3′-azido-3′-deoxythymidine] yielded an IC50 of 40 to 120 nM.

— US7812016B2, “Naphthyridine integrase inhibitors” (SmithKline Beecham Corporation, priority 2003, dated 2010)
